Results taken from patent publication US20240124483A1, “Methods for the Treatment of Fibrotic Disease” (SHY Therapeutics, LLC, priority 2021, published 2024).

Columns and labels:
Rheb = Rheb (Homo sapiens (Human), UniProt Q15382); assay: Rheb GTP Binding Domain Inhibition Assay; details: read-out: Rheb: % inh.
Description: (§1) The following method was developed as specific assay for cdc42 and Rheb proteins.
(§2) Buffer-I: • 25 mM Tris-HCl, pH 7.4 • 27 mM KCl • 137 mM NaCl • 1 mM MgCl2 • 1 mM DTT
(§3) Buffer-IL: • 50 mM Tris-HCl, pH 7.0 • 1 mM MgCl2 • 1 mM DTT
(§4) The small GTPases proteins cdc42 and Rheb were expressed as His-tagged proteins. For the assay, the cdc42 and Rheb purified small GTPases proteins were diluted in Buffer-I or Buffer-II to a final concentration of 10-30 μg/mL. 200 μL of each diluted protein was added to a nickel-coated 96-well plate and incubated overnight at […]. Then the protein solution was discarded and 200 μL of Buffer-I or Buffer-II was added to each well in the presence of 1% DMSO. Compounds to be tested were added to the protein-coated wells at final concentration of 20 μM, and incubated for 3 hours at room temperature with and without 10-30 μg/mL of Sos added to the final hour of the incubation. When performing IC50 measurements a serial dilution of all tested concentrations was added. Then Cy3-GTP or Cy5-GTP was added to each well to a final concentration of 100 nM. The labeled GTP was incubated for 45 minutes at room temperature. Following GTP incubation, wells were washed 3× in Buffer-I or Buffer-II and 200 μL of Buffer-I or Buffer-II was added to each well. Following washes, the amount of bound labeled-GTP was measured using a SpectraMax M3 (Molecular Devices).

Cdc42 = Cdc42 (Homo sapiens (Human), UniProt P60953); assay: Cdc42 GTP Binding Domain Inhibition Assay; details: read-out: Cdc42: % inh.
Cdc42, sequence (P60953 whole entry, species assumed, the tested form may be a part): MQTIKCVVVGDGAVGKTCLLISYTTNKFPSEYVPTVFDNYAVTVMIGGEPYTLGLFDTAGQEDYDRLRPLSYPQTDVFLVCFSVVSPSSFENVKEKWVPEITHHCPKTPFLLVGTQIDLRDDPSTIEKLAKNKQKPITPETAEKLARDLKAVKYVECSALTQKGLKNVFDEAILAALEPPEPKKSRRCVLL
Description: as §1, §2, §3, §4

AKT phosphorylation = assay: Western AKT Cell-Based Phosphorylation Assay; details: Homo sapiens, PANC-1, 6 hours, EGF 1.5 ng/ml, read-out: % inh of AKT phosphorylation in PANC-1
Description: (§5) Human tumor-derived pancreatic cancer cell line Panc-1 was purchased from American Type Culture Collection and grown in complete DMEM-High Glucose supplemented with penicillin (100 U/mL), streptomycin (100 μg/mL), and 10% heat-inactivated FBS at 37° C. in a humidified incubator with 5% CO2.
(§6) Method: Cells were plated at 350000 cells/well density in a 12-well plate, allowed 3 hours to adhere to the plate, then starved in the appropriate medium in the presence of 0.5% FBS overnight. The small molecules to be tested were added to the cells in the final concentration of 10 μM in the presence of 0.3% DMSO for 6 hours incubation at 37° C. Next, cells were stimulated with 1.5 ng/ml EGF for 15 minutes then cells were lysed with lysis buffer containing 1% Triton X-100, EDTA, and Halt™ Protease & Phosphatase Inhibitor Cocktail (Thermo Scientific). Protein concentration was assessed by BCA protein assay (Thermo Scientific). Phosphorylation level of Akt was determined by western blot.
(§7) Western blot protocol: Equal amounts of protein (15-50 μg) were separated by SDS-PAGE and transferred to nitrocellulose membranes (Invitrogen by Thermo Fisher Scientific). The membrane was stained with Ponceau S Stain (Boston BioProducts) to verify uniform protein loading. Membranes were blocked with 10% milk and phosphorylation levels of Akt were assessed by incubating overnight at 4° C. with anti-phospho-Akt (Ser473) antibody (Cell Signaling) followed by HRP-conjugated secondary antibody (Jackson Immunoresearch, West Grove, PA). Bands were incubated in Amersham ECL Prime Western Blotting Detection Reagent (GE Healthcare) and visualized using the ChemiDoc MP imaging system (Bio-Rad).

ERK1/2 phosphorylation = assay: Western ERK1/2 Cell-Based Phosphorylation Assay; details: Homo sapiens, PANC-1, 6 hours, EGF 1.5 ng/ml, read-out: % inh of ERK1/2 phosphorylation in PANC-1
Description: as §5, with “Cell lines: Human” for “Human”, “Glucose,” for “Glucose”
as §6, with “C. For IC50 value determination, serial dilutions of compounds were added to cells under the same conditions.” for “C.”, “ERK1/2” for “Akt”
as §7, with “ERK1/2” for “Akt”, “anti-phospho-p44/42 (Thr202/Tyr204)” for “anti-phospho-Akt (Ser473)”

Rheb, sequence (Q15382 whole entry, species assumed, the tested form may be a part): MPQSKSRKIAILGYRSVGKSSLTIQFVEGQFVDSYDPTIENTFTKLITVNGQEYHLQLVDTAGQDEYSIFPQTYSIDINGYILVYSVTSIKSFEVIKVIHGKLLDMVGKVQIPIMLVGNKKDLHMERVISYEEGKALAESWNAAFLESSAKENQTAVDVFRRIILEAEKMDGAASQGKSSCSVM

Compound	inhibition at 20 µM (Rheb) [%]	inhibition at 20 µM (Cdc42) [%]	inhibition at 10 µM (AKT phosphorylation) [%]	inhibition at 10 µM (ERK1/2 phosphorylation) [%]
COc1cc(-c2sc3nc(-c4nccn4C)nc(N[C@@H]4CC[C@H](OC)C4)c3c2-c2ccccc2)ccn1 (racemic) [Compound 44, rac-N-((1R,3S)-3-Methoxycyclopentyl)-6-(2-methoxypyridin-4-yl)-2-(1-methyl-1H-imidazol-2-yl)-5-phenylthieno[2,3-d]pyrimidin-4-amine]	26 to 45	1 to 25	76 to 100	46 to 75
COc1cc(-c2sc3nc(-c4nccn4C)nc(N[C@@H]4CC[C@@H](OC)C4)c3c2-c2ccccc2)ccn1 (racemic) [Compound 47, N-((1R,3R)-3-Methoxycyclopentyl)-6-(2-methoxypyridin-4-yl)-2-(1-methyl-1H-imidazol-2-yl)-5-phenylthieno[2,3-d]pyrimidin-4-amine]	76 to 100	46 to 75	76 to 100	76 to 100
COCCOc1nc(-c2nccn2C)nc2sc(-c3ccn(C(C)C)n3)c(C)c12 [Compound 30, 6-(1-Isopropyl-1H-pyrazol-3-yl)-4-(2-methoxyethoxy)-5-methyl-2-(1-methyl-1H-imidazol-2-yl)thieno[2,3-d]pyrimidine]	–	–	0	0
COCCCn1c(-c2nccn2C)nc2sc(-c3ccn(C(C)C)n3)c(C)c2c1=O [Compound 31, 6-(1-Isopropyl-1H-pyrazol-3-yl)-3-(3-methoxypropyl)-5-methyl-2-(1-methyl-1H-imidazol-2-yl)thieno[2,3-d]pyrimidin-4(3H)-one]	–	–	0	0
COCCCOc1nc(-c2nccn2C)nc2sc(-c3ccn(C(C)C)n3)c(C)c12 [Compound 32, 6-(1-Isopropyl-1H-pyrazol-3-yl)-4-(3-methoxypropoxy)-5-methyl-2-(1-methyl-1H-imidazol-2-yl)thieno[2,3-d]pyrimidine]	–	–	1 to 25	0
COCCCCn1c(-c2nccn2C)nc2sc(-c3ccn(C(C)C)n3)c(C)c2c1=O [Compound 33, 6-(1-Isopropyl-1H-pyrazol-3-yl)-3-(4-methoxybutyl)-5-methyl-2-(1-methyl-1H-imidazol-2-yl)thieno[2,3-d]pyrimidin-4(3H)-one]	–	–	0	0
COCCCCOc1nc(-c2nccn2C)nc2sc(-c3ccn(C(C)C)n3)c(C)c12 [Compound 34, 6-(1-Isopropyl-1H-pyrazol-3-yl)-4-(4-methoxybutoxy)-5-methyl-2-(1-methyl-1H-imidazol-2-yl)thieno[2,3-d]pyrimidine]	–	–	0	0
COc1cc(Cn2c(-c3nccn3C)nc3sc(-c4ccn(C(C)C)n4)c(C)c3c2=O)ncn1 [Compound 35, 6-(1-Isopropyl-1H-pyrazol-3-yl)-3-((6-methoxypyrimidin-4-yl)methyl)-5-methyl-2-(1-methyl-1H-imidazol-2-yl)thieno[2,3-d]pyrimidin-4(3H)-one]	–	–	0	0
COCCCn1c(-c2nccn2C)nc2sc(-c3ccn(C(C)C)n3)c(-c3ccccc3)c2c1=O [Compound 36, 6-(1-Isopropyl-1H-pyrazol-3-yl)-3-(3-methoxypropyl)-2-(1-methyl-1H-imidazol-2-yl)-5-phenylthieno[2,3-d]pyrimidin-4(3H)-one]	–	–	0	0
COCCCOc1nc(-c2nccn2C)nc2sc(-c3ccn(C(C)C)n3)c(-c3ccccc3)c12 [Compound 37, 6-(1-Isopropyl-1H-pyrazol-3-yl)-4-(3-methoxypropoxy)-2-(1-methyl-1H-imidazol-2-yl)-5-phenylthieno[2,3-d]pyrimidine]	–	–	0	0
COc1cccc(-c2sc3nc(-c4nccn4C)nc(N[C@H]4C[C@H](OC)C4)c3c2-c2ccccc2)c1F [Compound 40, 6-(2-Fluoro-3-methoxyphenyl)-N-((1r,3r)-3-methoxycyclobutyl)-2-(1-methyl-1H-imidazol-2-yl)-5-phenylthieno[2,3-d]pyrimidin-4-amine]	76 to 100	26 to 45	76 to 100	76 to 100
COc1cccc(-c2sc3nc(-c4nccn4C)nc(N[C@H]4C[C@H](OC)C4)c3c2C)c1F [Compound 42, 6-(2-Fluoro-3-methoxyphenyl)-N-((1r,3r)-3-methoxycyclobutyl)-5-methyl-2-(1-methyl-1H-imidazol-2-yl)thieno[2,3-d]pyrimidin-4-amine]	–	–	26 to 45	46 to 75
COc1nccc(-c2sc3nc(-c4nccn4C)nc(N[C@H]4C[C@H](OC)C4)c3c2-c2ccccc2)c1F [Compound 45, 6-(3-Fluoro-2-methoxypyridin-4-yl)-N-((1r,3r)-3-methoxycyclobutyl)-2-(1-methyl-1H-imidazol-2-yl)-5-phenylthieno[2,3-d]pyrimidin-4-amine]	76 to 100	46 to 75	76 to 100	76 to 100
COc1cc(-c2sc3nc(-c4nccn4C)nc(N[C@H]4C[C@H](OC)C4)c3c2-c2ccccc2)ccn1 [Compound 46, N-((1r,3r)-3-Methoxycyclobutyl)-6-(2-methoxypyridin-4-yl)-2-(1-methyl-1H-imidazol-2-yl)-5-phenylthieno[2,3-d]pyrimidin-4-amine]	76 to 100	46 to 75	1 to 25	76 to 100
